*1 amine or outer side, *2 acyl side, *3 side chain or, on linkers, in order; H or OH if unused. Where a SMILES comes first, the peptide text is derived from it. Bridges are numbered along the chain shown (N, C = ends). Roman numbers before positions name the chains, in order. [ ]: non-standard residue; d: D form. Actinocin(9to1) = Cc1c2oc3c(C)ccc(C(=O)[*:1])c3nc-2c(C(=O)[*:2])c(N)c1=O; NMeV = CN[C@H](C(=O)O)C(C)C; Sar = CNCC(=O)O
Assays:
Format in all cases: cell-based, human
acH2A.Z = assay: ChIP-Seq with acH2A.Z antibody, occupancy at TSSs; conditions: for number of TSS with at least / greater than 2-fold drop in acH2A.Z occupancy: HL-60, 2 hr treatment, vs cells without treatment, 38,512 TSS compared; for acH2A.Z enrichment at the TSS, genome-wide / acH2A.Z peak intensity ratio, MYB locus (DMSO = 0.62, ActD = 1.0) / acH2A.Z peak intensity ratio, PU.1 locus (DMSO = 1.0) / acH2A.Z peak intensity ratio, c-MYC locus (DMSO = 1): HL-60, 2 hr; for acH2A.Z enrichment at the TSS, genome-wide: vs mock-treated (DMSO), FIG. 4C; for acH2A.Z peak intensity ratio, MYB locus (DMSO = 0.62, ActD = 1.0) / acH2A.Z peak intensity ratio, PU.1 locus (DMSO = 1.0) / acH2A.Z peak intensity ratio, c-MYC locus (DMSO = 1): [DMSO/DRB/ActD]
Source text: (§1) Two transcription inhibitors, Actinomycin D (ActD; RNA Polymerase I, II and III inhibitor) and 5,6-Dichlorobenzimidazole 1-β-D-ribofuranoside (DRB; RNAPII Inhibitor), were used at concentrations sufficient to block both RNA Polymerases II and III. Cells were synchronized with a double thymidine block and released into S Phase with ActD/DRB added. The rationale behind the use of ActD and DRB is: (i) to globally assess the effect of SPEARs suppression over a short time frame; (ii) to test effects resulting from the two different pathways triggered by ActD and DRB; and (iii) to take advantage of the reversibility of DRB treatment. […] Two hours after drug treatment, cells were crosslinked and subjected to ChIP-Seq analyses. […] Relative changes were then investigated in the footprints of unmodified H2A.Z and acH2A.Z in the vicinity of TSSs that result from DRB- and ActD-induced inhibition of SPEARs. The enrichments of ChIP-Seq signals for H2A.Z and acH2A.Z around 38,512 TSS (defined in the hg38 UCSC canonical gene table) following drug treatment were then compared with their occupancy in mock-treated (DMSO) cells. […] ActD-treated cells followed this pattern with a greater than 2-fold decrease in the levels of acH2A.Z at 6,283 TSS compared to untreated samples. […] For the c-MYC and PU1 loci, respectively, the ratios of control (DMSO) to drug treated H2A.Z peak intensities were: [DMSO/DRB/ActD]^c-MYC=1/0.76/0.67 and [DMSO/DRB/ActD]^PU.1=1/0.87/0.82; and the ratios of control (DMSO) to drug treated acH2A.Z peak intensities were: [DMSO/DRB/ActD]^c-MYC=1/0.62/0.36 and [DMSO/DRB/ActD]^PU.1=1.0/0.25/0.13. […] For MYB the ratios of control (DMSO) to drug treated acH2A.Z peak intensities are: [DMSO/DRB/ActD]^MYB=0.62/0.89/1.0, which corresponds to the increases in its SPEARs levels (FIG. 10C).
(§2) Double Thymidine block (early S-phase block) was carried out as described. Briefly, HL-60 cells were grown overnight to 70-80% confluence, washed twice with 1×PBS and cultured in DMEM (10% FCS)+2.5 mM Thymidine for 18 h (first block). Thymidine was washed out with 1×PBS and cells were grown in DMEM (10% FCS). After 8 hrs cells were cultured in the presence of thymidine for 18 h (second block) and then released as described. Synchrony was monitored by flow cytometry analysis of propidium iodide-stained cells using a LSRII flow cytometer (BD Biosciences) at the Harvard Stem Cell Institute/Beth Israel Deaconess Center flow cytometry facility.
(§3) DRB and Actinomycin D treatments were carried out as described. Briefly, after release from double thymidine block, HL-60 cells were treated with 100 μM of 5,6-Dichlorobenzimidazole 1-β-D-ribofuranoside (DRB) (Sigma Aldrich) or 0.8 μM of Actinomycin D (Sigma Aldrich) as indicated at each time point.
(§4) ChIP was performed as follows. Cells were crosslinked with 1% formaldehyde for 10 min at r.t. Pellets of 1×10^6 cells were used for immunoprecipitation and lysed for 10 minutes on ice and chromatin fragmented using a Branson 250 digital sonicator. Each ChIP was performed with 4 ug of antibody, incubated overnight at 4° C. A 50/50 slurry of protein A and protein G Dynabeads was used to capture enriched chromatin, which was then washed before reverse-crosslinking and proteinase K digestion at 65° C. AMPure XP beads were used to clean up and isolate ChIP DNA for subsequent library construction. The following antibodies were used for ChIP: H2A.Z (Abcam ab4174, lot GR3176820-1), acH2A.Z (Abcam ab18262, lot GR306397-1), TIP60 antibody; and IgG (Abcam ab171870). Fold enrichment was calculated using the formula 2^(−ΔΔCt(ChIP/non-immune serum)). Primer sets used for ChIP are listed in Table 2. nRIP was performed and crosslinked nuclei were collected as follows: 1. 60×10^6 HL-60 cells were crosslinked with 1% formaldehyde (formaldehyde solution, freshly made: 50 mM HEPES-KOH; 100 mM NaCl; 1 mM EDTA; 0.5 mM EGTA; 11% formaldehyde) for 10 min at room temperature. […]

PU.1 SPEARs = assay: qRT-PCR / strand-specific qRT-PCR of PU.1 SPEARs; conditions: HL-60, DRB and ActD, FIG. 10C
Description: (§5) Total RNA isolation was carried out and all RNA samples used in this study were treated with DNase I (10 U of DNase I per 3 μg of total RNA; 37° C. for one hour; in the presence of RNase inhibitor). After DNase I treatment, RNA samples were extracted with acidic phenol (pH 4.3) to eliminate any remaining traces of DNA. cDNA syntheses were performed with Random Primers (Invitrogen) or gene-specific primers with Transcriptor Reverse Transcriptase (Roche Applied Science) according to the manufacturer's recommendation. cDNA was purified with a High Pure PCR Product Purification Kit (Roche Applied Science).
Sybr green reaction was performed using iQ Sybr Green supermix (Biorad, Hercules, CA) using the following parameters: 95° C. (10 min), 40 cycles of 95° C. (15 s) and 60° C. (1 min) 72° C. (1 min). TaqMan analysis was performed using Hotstart Probe One-step qRT-PCR master mix (USB) at the following conditions: 50° C. (10 min.), 95° C. (2 min.), and then 40 cycles of 95° C. (15 sec.) and 60° C. (60 sec.). […]

H2A.Z = assay: ChIP-Seq with H2A.Z antibody, occupancy at TSSs; conditions: for number of TSS with comparable (2-fold) decrease in total H2A.Z occupancy: HL-60, 2 hr treatment, vs cells without treatment, 38,512 TSS compared; for occupancy levels of unmodified H2A.Z at the TSS, genome-wide / H2A.Z peak intensity ratio, PU.1 locus (DMSO = 1) / H2A.Z peak intensity ratio, c-MYC locus (DMSO = 1): HL-60, 2 hr; for occupancy levels of unmodified H2A.Z at the TSS, genome-wide: vs mock-treated (DMSO), FIG. 4C; for H2A.Z peak intensity ratio, PU.1 locus (DMSO = 1) / H2A.Z peak intensity ratio, c-MYC locus (DMSO = 1): [DMSO/DRB/ActD]
Source text: as §1, §2, §3, §4

MYB SPEARs = assay: qRT-PCR of MYB SPEARs; conditions: HL-60, DRB and ActD, FIG. 10C
Description: as §5
Sybr green reaction was performed using iQ Sybr Green supermix (Biorad, Hercules, CA) using the following parameters: 95° C. (10 min), 40 cycles of 95° C. (15 s) and 60° C. (1 min) 72° C. (1 min). TaqMan analysis was performed using Hotstart Probe One-step qRT-PCR master mix (USB) at the following conditions: 50° C. (10 min.), 95° C. (2 min.), and then 40 cycles of 95° C. (15 sec.) and 60° C. (60 sec.).

SMILES | number of TSS with at least / greater than 2-fold drop in acH2A.Z occupancy (acH2A.Z) | acH2A.Z enrichment at the TSS, genome-wide (acH2A.Z) | acH2A.Z peak intensity ratio, MYB locus (DMSO = 0.62, ActD = 1.0) (acH2A.Z) | acH2A.Z peak intensity ratio, PU.1 locus (DMSO = 1.0) (acH2A.Z) | acH2A.Z peak intensity ratio, c-MYC locus (DMSO = 1) (acH2A.Z) | PU.1 SPEARs level upon transcription inhibitors (PU.1 SPEARs) | number of TSS with comparable (2-fold) decrease in total H2A.Z occupancy (H2A.Z) [TSS] | occupancy levels of unmodified H2A.Z at the TSS, genome-wide (H2A.Z) | H2A.Z peak intensity ratio, PU.1 locus (DMSO = 1) (H2A.Z) | H2A.Z peak intensity ratio, c-MYC locus (DMSO = 1) (H2A.Z) | MYB SPEARs level upon transcription inhibitors (MYB SPEARs)
OC[C@H]1O[C@@H](n2cnc3cc(Cl)c(Cl)cc32)[C@H](O)[C@@H]1O [DRB, 5,6-Dichlorobenzimidazole 1-β-D-ribofuranoside] | 3,394 TSS | drastic reduction | 0.89 | 0.25 | 0.62 | negatively affected | 398 | only modest changes | 0.87 | 0.76 | positively affected
Cc1c2oc3c(C)ccc(C(=O)N[C@@H]4C(=O)N[C@H](C(C)C)C(=O)N5CCC[C@H]5C(=O)N(C)CC(=O)N(C)[C@@H](C(C)C)C(=O)O[C@@H]4C)c3nc-2c(C(=O)N[C@@H]2C(=O)N[C@H](C(C)C)C(=O)N3CCC[C@H]3C(=O)N(C)CC(=O)N(C)[C@@H](C(C)C)C(=O)O[C@@H]2C)c(N)c1=O [ActD, Actinomycin D] (I: T[dV]P[Sar][NMeV] / II: T[dV]P[Sar][NMeV]; ester I:1-I:C, II:1-II:C; linker I:N-II:N via Actinocin(9to1)) | 6,283 TSS | drastic reduction | 1.0 | 0.13 | 0.36 | negatively affected | 650 | only modest changes | 0.82 | 0.67 | positively affected

— patent publication US20240209456A1, “METHODS AND COMPOSITIONS RELATED TO CELL-CYCLE RNA's” (BETH ISRAEL DEACONESS MEDICAL CENTER, priority 2021, published 2024)
